# Source: ChEMBL document CHEMBL1201862, “PubChem BioAssay data set” (2004)
# Activity calls are given as the source filed them.
# Columns and labels:
# cells [1] = type: functional, cell-based; settings: HEK-CNG
# Galanin receptor type 3 = target: T1, Galanin receptor type 3 (Homo sapiens, UniProt O60755); test: Fluorescence-based cell-based primary high throughput dose response assay to identify antagonists of the Galanin Receptor 3 (GalR3).; type: functional
# T1 sequence (O60755 whole entry): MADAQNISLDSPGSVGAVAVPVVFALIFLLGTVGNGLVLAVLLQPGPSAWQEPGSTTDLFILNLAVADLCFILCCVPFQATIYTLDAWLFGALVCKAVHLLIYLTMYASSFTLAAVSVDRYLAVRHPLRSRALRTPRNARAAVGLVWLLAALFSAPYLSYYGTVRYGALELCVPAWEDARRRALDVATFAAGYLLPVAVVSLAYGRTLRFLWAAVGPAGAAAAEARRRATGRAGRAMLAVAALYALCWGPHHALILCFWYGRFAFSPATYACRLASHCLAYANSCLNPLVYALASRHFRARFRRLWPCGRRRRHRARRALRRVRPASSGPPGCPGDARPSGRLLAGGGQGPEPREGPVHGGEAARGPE
# Protein RecA = target: T2, Protein RecA (Mycobacterium tuberculosis, UniProt P9WHJ3); test: Fluorescence Cell-Free Homogeneous Dose Retest to Identify Inhibitors of RecA-Intein Splicing Activity. [Related pubchem assays (depositor defined):AID2097, AID2223, AID489010, AID492950]; type: functional
# T2 sequence (P9WHJ3 whole entry): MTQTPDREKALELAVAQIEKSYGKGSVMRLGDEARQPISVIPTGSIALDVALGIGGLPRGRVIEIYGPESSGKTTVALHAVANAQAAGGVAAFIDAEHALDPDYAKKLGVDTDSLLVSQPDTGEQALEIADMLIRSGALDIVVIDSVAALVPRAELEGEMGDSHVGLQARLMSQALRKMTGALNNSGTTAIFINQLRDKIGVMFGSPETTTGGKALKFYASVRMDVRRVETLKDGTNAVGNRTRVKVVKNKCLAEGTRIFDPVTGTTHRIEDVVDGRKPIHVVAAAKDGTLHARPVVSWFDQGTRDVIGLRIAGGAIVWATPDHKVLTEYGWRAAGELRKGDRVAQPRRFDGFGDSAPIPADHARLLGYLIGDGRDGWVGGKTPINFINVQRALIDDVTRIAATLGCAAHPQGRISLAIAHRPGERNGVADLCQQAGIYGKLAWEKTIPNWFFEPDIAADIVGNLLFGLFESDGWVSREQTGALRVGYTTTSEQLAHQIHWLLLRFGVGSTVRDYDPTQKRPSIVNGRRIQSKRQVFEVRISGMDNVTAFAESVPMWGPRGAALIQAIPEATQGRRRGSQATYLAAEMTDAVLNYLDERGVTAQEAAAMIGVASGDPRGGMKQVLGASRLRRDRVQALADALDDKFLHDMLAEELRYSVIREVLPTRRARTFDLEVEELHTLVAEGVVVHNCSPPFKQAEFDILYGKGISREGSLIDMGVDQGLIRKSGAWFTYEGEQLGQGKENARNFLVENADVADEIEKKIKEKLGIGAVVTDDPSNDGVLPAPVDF
# [2] = target: T3, Replicative DNA helicase DnaB (Mycobacterium tuberculosis, UniProt P9WMR3); test: DnaB intein splicing inhibitors, dose response, biochemical, cell-free fluorescence (AID 449749); type: functional
# T3 sequence (P9WMR3 whole entry): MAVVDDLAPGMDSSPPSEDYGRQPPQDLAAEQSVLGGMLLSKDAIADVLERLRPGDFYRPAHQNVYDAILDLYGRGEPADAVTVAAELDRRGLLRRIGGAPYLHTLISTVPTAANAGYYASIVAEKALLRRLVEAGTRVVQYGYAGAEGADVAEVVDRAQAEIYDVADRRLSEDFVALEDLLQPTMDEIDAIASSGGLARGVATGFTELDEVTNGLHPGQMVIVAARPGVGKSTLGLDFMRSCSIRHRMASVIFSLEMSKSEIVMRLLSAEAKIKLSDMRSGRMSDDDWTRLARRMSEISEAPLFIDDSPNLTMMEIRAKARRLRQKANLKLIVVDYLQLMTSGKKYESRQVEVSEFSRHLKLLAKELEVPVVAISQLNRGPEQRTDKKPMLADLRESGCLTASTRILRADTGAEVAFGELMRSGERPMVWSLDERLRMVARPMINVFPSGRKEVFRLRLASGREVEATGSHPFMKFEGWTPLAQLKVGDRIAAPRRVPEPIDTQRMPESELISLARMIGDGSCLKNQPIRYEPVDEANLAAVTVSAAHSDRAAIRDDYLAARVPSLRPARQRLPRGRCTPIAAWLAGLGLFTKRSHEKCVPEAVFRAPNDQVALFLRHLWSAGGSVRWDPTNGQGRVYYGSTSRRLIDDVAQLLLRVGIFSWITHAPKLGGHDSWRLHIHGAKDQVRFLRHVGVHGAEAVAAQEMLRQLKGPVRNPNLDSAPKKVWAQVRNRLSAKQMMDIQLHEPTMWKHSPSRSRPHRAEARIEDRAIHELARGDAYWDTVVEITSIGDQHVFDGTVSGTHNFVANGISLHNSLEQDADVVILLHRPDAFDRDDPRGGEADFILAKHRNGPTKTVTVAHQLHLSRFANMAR
# [3] = HGIII-sPLA2 enzyme inhibition potency – biochemical, QFRET, IC50, dose response (AID 743457);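 note: green fluorescence rise as the enzyme cleaves BODIPY PC-A2 in liposomes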
# INS1 = test: INS-1E survival protection against cytokine death – cell-based, luminescence, retest, dose response (AID 449756); type: functional; settings: Rattus norvegicus;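 note: cell death triggered by IL-1 beta plus TNF-alpha plus IFN-gamma mixture; protective hits raise ATP signal compared with cytokine alone wells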
# fMet-Leu-Phe receptor = target: T4, fMet-Leu-Phe receptor (Homo sapiens, UniProt P21462); test: formyl peptide receptor binders – dose response (AID 519); type: functional
# T4 sequence (P21462 whole entry): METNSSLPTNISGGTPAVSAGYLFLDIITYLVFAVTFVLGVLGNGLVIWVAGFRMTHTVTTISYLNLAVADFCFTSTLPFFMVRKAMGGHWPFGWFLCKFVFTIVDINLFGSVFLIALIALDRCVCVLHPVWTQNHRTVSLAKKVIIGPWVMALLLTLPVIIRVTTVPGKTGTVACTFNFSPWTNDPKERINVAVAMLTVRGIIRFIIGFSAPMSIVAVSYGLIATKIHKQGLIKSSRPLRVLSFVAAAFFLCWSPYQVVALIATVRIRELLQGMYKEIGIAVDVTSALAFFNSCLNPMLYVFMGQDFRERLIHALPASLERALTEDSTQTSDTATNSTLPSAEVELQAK
# Nonstructural protein 1 = Nonstructural protein 1 (Influenza A virus, UniProt Q194T2); type: functional, Influenza A virus (A/California/07/2009(H1N1))
# Chain of Nonstructural protein 1 (Q194T2 whole entry): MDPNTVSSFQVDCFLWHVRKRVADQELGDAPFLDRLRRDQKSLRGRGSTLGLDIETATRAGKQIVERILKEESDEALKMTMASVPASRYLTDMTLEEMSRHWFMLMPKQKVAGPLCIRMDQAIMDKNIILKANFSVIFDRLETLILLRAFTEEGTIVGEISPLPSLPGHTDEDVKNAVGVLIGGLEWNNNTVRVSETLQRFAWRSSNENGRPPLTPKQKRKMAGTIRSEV
# [4] = target: T5, Rac GTPase-activating protein 1 (Homo sapiens, UniProt Q9H0H5); test: blockers of MgcRacGAP-driven Rac1 GTP hydrolysis – biochemical, ADP Hunter fluorescence, primary and confirmatory, confirmation (AID 624330); type: functional
# T5 sequence (Q9H0H5 whole entry): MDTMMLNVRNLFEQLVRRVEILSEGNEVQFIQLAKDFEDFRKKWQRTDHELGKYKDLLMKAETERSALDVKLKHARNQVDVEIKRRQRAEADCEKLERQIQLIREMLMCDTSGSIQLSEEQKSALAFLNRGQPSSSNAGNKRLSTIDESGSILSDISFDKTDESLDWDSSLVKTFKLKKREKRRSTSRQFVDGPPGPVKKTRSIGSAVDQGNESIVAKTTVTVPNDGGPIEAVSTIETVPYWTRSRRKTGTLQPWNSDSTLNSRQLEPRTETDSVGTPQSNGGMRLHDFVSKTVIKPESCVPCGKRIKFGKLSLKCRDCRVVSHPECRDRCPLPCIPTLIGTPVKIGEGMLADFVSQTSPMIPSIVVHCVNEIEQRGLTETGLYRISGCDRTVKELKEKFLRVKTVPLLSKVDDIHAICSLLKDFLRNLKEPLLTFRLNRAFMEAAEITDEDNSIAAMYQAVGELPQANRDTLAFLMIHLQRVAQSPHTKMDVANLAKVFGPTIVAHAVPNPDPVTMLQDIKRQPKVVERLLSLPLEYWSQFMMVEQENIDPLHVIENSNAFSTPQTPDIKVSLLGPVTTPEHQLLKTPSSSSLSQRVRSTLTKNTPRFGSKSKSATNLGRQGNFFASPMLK
# [5] = A549 cell cytotoxicity, dose response, cytotoxicity control, plate reader, cherry-pick, antagonist series (AID 743412); type: functional, cell-based
# [6] = toxicity toward HepG2 liver cells – cell-based, plate reader, cherry-pick, antagonist series, cytotoxicity control, dose response (AID 743416); type: functional
# HEK293 = test: EBV LMP1 TES2 canonical NF-kB signalling blockers – cell-based, HEK293, luciferase, cherry-pick, dose response (AID 588343); type: functional; settings: Homo sapiens
# [7] = blockers of bursicon-stimulated LGR2 cAMP reporter – cell-based, HEK293, CRE-luciferase reporter, cherry pick, set 2, dose response (AID 743343); type: functional;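 note: transfected cells were stimulated with diluted bursicon conditioned medium after compound addition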
# [8] = blockade of melanocortin 4 receptor signaling – cell-based, plate reader, cherry pick, counter-screen for LGR2 antagonist project, dose response (AID 743444); type: functional;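 note: transfected HEK 293 cells stimulated with alpha-MSH peptide; potency of inhibitors of the alpha-MSH evoked signal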
# [9] = target: Peroxisome proliferator-activated receptor gamma/Nuclear receptor coactivator 3 (Homo sapiens, UniProt P37231); test: TR-FRET dose response biochemical High Throughput Screening assay for agonists of the steroid receptor coactivator 3 (SRC-3) recruitment by the peroxisome proliferator-activated receptor gamma (PPAR gamma): non-selective agonists. [Related pubchem assays: 1301 (Confirmation screen.), 1048 (Primary screen.)]; type: functional
# Chain of Peroxisome proliferator-activated receptor gamma/Nuclear receptor coactivator 3 (P37231 whole entry): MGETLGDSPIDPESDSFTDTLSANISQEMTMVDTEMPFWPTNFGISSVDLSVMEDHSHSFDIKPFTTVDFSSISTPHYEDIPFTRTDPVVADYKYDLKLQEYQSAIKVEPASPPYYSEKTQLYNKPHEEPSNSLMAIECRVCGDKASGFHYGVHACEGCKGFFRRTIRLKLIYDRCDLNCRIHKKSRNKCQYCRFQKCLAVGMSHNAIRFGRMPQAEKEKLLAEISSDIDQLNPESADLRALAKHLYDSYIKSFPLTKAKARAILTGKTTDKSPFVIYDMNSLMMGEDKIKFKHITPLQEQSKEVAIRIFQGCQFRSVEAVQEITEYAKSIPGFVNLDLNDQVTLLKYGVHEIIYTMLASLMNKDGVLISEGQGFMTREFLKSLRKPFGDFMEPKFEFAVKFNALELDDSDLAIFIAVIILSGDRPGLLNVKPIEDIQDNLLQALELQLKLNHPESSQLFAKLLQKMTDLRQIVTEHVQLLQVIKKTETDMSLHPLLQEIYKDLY
# Chain of Peroxisome proliferator-activated receptor gamma/Nuclear receptor coactivator 3 (Q9Y6Q9 whole entry, further chain): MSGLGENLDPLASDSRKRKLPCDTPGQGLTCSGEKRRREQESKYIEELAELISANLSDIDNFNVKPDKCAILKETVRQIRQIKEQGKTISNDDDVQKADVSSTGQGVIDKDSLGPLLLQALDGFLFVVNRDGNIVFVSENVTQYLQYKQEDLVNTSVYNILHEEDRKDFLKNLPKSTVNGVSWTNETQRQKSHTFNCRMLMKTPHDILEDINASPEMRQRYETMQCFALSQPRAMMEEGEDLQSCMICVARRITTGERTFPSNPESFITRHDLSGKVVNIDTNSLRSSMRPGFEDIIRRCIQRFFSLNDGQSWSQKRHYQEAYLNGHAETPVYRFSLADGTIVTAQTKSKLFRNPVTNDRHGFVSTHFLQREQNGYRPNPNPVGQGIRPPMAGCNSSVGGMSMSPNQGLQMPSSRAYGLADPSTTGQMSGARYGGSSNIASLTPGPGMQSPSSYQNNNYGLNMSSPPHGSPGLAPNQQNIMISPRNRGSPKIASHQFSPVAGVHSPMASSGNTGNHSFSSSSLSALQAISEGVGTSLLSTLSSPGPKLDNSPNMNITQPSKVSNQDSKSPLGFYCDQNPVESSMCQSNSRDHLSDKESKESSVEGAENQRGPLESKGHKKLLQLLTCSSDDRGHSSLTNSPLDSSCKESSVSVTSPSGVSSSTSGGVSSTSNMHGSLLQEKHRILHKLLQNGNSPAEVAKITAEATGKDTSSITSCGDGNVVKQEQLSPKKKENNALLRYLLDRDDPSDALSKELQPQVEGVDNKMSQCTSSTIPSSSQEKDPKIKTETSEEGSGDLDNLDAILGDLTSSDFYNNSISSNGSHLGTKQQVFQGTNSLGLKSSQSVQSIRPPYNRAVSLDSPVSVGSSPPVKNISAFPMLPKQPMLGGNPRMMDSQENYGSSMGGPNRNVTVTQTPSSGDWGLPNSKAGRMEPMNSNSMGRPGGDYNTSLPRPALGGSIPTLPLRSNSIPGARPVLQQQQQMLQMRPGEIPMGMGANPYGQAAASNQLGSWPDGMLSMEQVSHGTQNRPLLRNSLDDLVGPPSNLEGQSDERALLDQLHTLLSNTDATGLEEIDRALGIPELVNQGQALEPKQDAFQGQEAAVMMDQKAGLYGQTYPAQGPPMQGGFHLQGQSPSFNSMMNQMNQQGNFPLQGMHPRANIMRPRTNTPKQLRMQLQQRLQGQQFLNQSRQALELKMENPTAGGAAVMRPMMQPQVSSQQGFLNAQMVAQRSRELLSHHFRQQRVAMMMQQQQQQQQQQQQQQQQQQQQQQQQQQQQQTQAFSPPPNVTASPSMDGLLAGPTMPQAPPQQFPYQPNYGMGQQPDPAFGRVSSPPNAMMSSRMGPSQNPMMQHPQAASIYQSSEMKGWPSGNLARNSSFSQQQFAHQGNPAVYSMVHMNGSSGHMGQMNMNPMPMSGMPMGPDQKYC
# [10] = target: Peroxisome proliferator-activated receptor gamma/Nuclear receptor coactivator 1 (Homo sapiens, UniProt P37231); test: TR-FRET dose response biochemical High Throughput Screening assay for agonists of the steroid receptor coactivator 1 (SRC-1) recruitment by the peroxisome proliferator-activated receptor gamma (PPAR gamma): non-selective agonists. [Related pubchem assays (depositor defined):AID1300, AID1808, AID504735, AID631]; type: protein assay
# [11] = target: Peroxisome proliferator-activated receptor gamma/Nuclear receptor coactivator 2 (Homo sapiens, UniProt P37231); test: TR-FRET dose response biochemical High Throughput Screening assay for agonists of the steroid receptor coactivator 2 (SRC-2) recruitment by the peroxisome proliferator-activated receptor gamma (PPAR gamma): non-selective agonists. [Related pubchem assays: 1297, 1032 ]; type: functional
# Chain of Peroxisome proliferator-activated receptor gamma/Nuclear receptor coactivator 2 (P37231 whole entry): as the sequence (P37231 whole entry) above
# Chain of Peroxisome proliferator-activated receptor gamma/Nuclear receptor coactivator 2 (Q15596 whole entry, further chain): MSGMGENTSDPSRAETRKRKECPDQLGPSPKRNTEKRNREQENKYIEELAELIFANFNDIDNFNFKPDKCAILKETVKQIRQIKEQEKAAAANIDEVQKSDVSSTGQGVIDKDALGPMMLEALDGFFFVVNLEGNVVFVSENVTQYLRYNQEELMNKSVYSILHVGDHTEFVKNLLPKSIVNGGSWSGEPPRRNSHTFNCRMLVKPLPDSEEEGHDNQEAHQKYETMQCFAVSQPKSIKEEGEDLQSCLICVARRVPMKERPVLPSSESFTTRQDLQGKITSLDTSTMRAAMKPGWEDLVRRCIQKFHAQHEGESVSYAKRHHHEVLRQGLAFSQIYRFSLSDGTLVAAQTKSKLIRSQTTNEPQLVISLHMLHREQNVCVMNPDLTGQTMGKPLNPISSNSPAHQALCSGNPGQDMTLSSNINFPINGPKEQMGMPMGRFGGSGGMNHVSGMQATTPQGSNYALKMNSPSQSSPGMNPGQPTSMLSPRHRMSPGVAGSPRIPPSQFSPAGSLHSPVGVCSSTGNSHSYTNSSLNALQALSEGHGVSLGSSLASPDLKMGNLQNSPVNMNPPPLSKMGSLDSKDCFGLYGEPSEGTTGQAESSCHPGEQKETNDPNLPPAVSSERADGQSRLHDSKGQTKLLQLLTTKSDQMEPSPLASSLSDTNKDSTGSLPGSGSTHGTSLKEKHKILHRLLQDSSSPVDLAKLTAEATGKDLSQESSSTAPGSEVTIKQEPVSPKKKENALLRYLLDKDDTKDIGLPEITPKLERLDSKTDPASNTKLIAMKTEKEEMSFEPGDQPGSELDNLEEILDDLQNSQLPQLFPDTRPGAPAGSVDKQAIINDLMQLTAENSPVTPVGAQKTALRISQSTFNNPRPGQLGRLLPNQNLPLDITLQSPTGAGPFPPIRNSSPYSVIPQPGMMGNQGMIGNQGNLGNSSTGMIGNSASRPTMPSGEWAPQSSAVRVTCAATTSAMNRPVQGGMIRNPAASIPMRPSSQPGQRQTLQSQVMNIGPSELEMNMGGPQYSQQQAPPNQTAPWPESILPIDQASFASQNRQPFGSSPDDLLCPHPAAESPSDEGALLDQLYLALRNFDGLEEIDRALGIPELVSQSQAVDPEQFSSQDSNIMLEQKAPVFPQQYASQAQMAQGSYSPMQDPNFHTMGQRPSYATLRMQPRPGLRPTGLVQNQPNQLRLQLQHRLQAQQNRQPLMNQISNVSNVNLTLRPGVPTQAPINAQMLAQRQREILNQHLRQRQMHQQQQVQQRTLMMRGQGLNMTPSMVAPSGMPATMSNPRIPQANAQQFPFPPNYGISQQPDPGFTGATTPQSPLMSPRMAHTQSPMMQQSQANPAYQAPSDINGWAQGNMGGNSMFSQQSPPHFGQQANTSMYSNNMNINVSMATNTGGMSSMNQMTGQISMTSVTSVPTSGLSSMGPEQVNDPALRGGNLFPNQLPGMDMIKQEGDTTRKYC
# cells [12] = type: functional, cell-based
# [13] = target: T6, Trace amine-associated receptor 1 (Homo sapiens, UniProt Q96RJ0); test: Counterscreen for agonists of the human trace amine associated receptor 1 (hTAAR1): Fluorescence-based cell-based high throughput dose response assay to identify hTAAR1 agonist that also desensitize TAAR1 receptor response.; type: functional
# T6 sequence (Q96RJ0 whole entry): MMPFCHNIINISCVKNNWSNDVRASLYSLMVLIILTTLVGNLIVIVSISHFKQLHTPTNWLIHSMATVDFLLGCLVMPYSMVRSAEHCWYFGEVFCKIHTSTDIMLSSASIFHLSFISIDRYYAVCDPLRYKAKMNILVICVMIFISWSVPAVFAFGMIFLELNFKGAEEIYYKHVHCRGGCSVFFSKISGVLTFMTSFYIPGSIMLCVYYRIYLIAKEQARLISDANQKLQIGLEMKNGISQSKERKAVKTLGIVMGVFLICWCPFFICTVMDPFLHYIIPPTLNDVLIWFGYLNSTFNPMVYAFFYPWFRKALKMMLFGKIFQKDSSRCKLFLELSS
# cells [14] = type: functional, cell-based; remark: listed apart in the source
# [15] = target: T6, Trace amine-associated receptor 1; test: Fluorescence-based cell-based high throughput dose response assay to identify agonists of the human trace amine associated receptor 1 (TAAR1).; type: functional
structure (smiles),measurement,setting,value
COCCn1c(SCCCC(=O)c2ccc(Br)cc2)nnc1-c1ccncc1,EC50,cells [1],> 29.9 µM (inactive)
same,IC50,Galanin receptor type 3,5.94 µM (active)
Cc1onc(-c2ccccc2)c1-c1nc2ccccc2c(=O)o1,EC50,cells [1],> 29.9 µM (inactive)
same,IC50,Galanin receptor type 3,> 29.9 µM (inactive)
same,EC50,Protein RecA,1.11 µM (active)
same,AC50,[2],1.31 µM (active)
Cc1ccc(C(=O)NC(=S)/C=C2\N(C)c3ccccc3C2(C)C)cc1,IC50,[3],> 122 µM (inactive)
same,AC50,INS1,2.33 µM (active)
COc1cc(C2C(C(=O)c3ccc(C)o3)=C(O)C(=O)N2Cc2cccnc2)ccc1O (stereo not drawn),Ki,fMet-Leu-Phe receptor,> 66.7 µM (inactive)
CCOC(=O)CCN(c1ccccc1)S(=O)(=O)c1ccc(-c2ccc(O)nn2)s1,EC50,cells [1],> 29.9 µM (inactive)
same,IC50,Galanin receptor type 3,4.41 µM (active)
COc1cc(OC)c(C2Nc3cccc4cccc(c34)N2)c(OC)c1,IC50,[3],83.1 µM (inactive)
same,IC50,Nonstructural protein 1,> 100 µM (active)
same,IC50,[4],65.2 µM (active)
CSCCC1C(C#N)=C(N)Oc2[nH]nc(-c3cccs3)c21 (stereo not drawn),Ki,fMet-Leu-Phe receptor,> 66.7 µM (inactive)
same,EC50,Protein RecA,1.43 µM (active)
same,AC50,[2],3.12 µM (active)
Cc1ccc(C(=O)NCCc2cccs2)cc1,AC50,[5],> 52 µM (inactive)
same,AC50,[6],> 52 µM (inactive)
same,AC50,HEK293,2.28 µM (active)
same,AC50,[7],3.13 µM (active)
same,AC50,[8],3.74 µM (active)
COc1cccc(C2C(C(=O)c3ccc(OC)c(OC)c3)=C(O)C(=O)N2c2cc(C)on2)c1 (stereo not drawn),Ki,fMet-Leu-Phe receptor,> 66.7 µM (inactive)
same,EC50,[9],> 79.4 µM (not active)
same,EC50,[10],> 79.4 µM (inactive)
same,EC50,[11],> 79.4 µM (not active)
CC/C(NCCc1ccccc1)=C1/C(=O)NC(=O)N(C2CCCCC2)C1=O,IC50,cells [12],> 29.9 µM (inactive)
same,IC50,[13],6.23 µM (active)
same,EC50,cells [14],> 29.9 µM (inactive)
same,EC50,[15],2.87 µM (active)
Cc1cccc(C(CC(=O)NCCc2ccccc2)c2ccccc2)c1O (stereo not drawn),IC50,cells [12],> 29.9 µM (inactive)
same,IC50,[13],4.62 µM (active)
same,EC50,cells [14],> 29.9 µM (inactive)
same,EC50,[15],3.5 µM (active)
CN(CCc1ccccc1)c1cc2c(c3c1ccn3C)C1CCC2O1 (stereo not drawn),IC50,cells [12],> 29.9 µM (inactive)
same,IC50,[13],5.22 µM (active)
same,EC50,cells [14],> 29.9 µM (inactive)
same,EC50,[15],1.18 µM (active)
